Assay results as given in US20080009548A1, “AMBROXOL FOR THE TREATMENT OF ACUTE PAIN” (priority 2003, published 2008).

Experiments:
[1] = molecular target: tetrodotoxin-resistant sodium channels (Rattus norvegicus, UniProt Q62968); type: cell-based; settings: neuron cultures from the posterior root ganglia of adult rats; read-out: half-maximal inhibition of tetrodotoxin-resistant sodium channels
[2] = tested on: Tetrodotoxin-sensitive currents; type: cell-based, rat; settings: read-out: IC50 of tetrodotoxin-sensitive currents; neuron cultures from the posterior root ganglia of adult rats
[3] = tested on: voltage-dependent calcium channels; experiment: Patch-Clamp measurement of current through voltage-dependent calcium channels in posterior root ganglia neurons; type: cell-based; settings: neuron cultures from adult rat posterior root ganglia; voltage jumps from −80 mV to 0 mV for 50 ms
Description: Voltage-dependent calcium channels play an important role in the transmission of pain-related excitation in the nervous system. The blocking of these channels has been described as being helpful for the treatment of acute pain (KA Sluka (1998), JPET 287, 232-237; J Devulder et al. (2001), J Pain Sympt Management 22, 622-626). […] Neurons were dissected from posterior root ganglia of adult rats and placed in short-term culture. The cells were investigated electrophysiologically by the Patch-Clamp method (voltage terminal), and the flow of current through voltage-dependent calcium channels was measured after electrical stimulation (voltage jumps from −80 mV to 0 mV holding potential for 50 ms) in the presence and absence of ambroxol.

human GluR1/2 receptors = molecular target: T1, human GluR1/2 receptors (Homo sapiens, UniProt P42261+P42262); experiment: Patch-Clamp measurement of glutamate-induced membrane currents in HEK 293 cells expressing GluR1/2 receptors; type: cell-based; settings: HEK 293 cells expressing human GluR1/2; 1 mM glutamate for 1 s, holding potential −80 mV
T1 construct: expressed in transfected cells; host or cells: HEK 293
Description: Ionotropic glutamate receptors of the AMPA sub-type are also essential for the excitatory neurotransmission. […] The blocking of AMPA receptors has been described as being helpful for the treatment of acute pain (e.g., ji Szekely et al. (1997), EJP 336, 143-154). HEK 293 cells which expressed functionally recombinant human GluR1/2 receptors were electrophysiologically investigated by the Patch-Clamp method ([…]). The administration of 1 mM glutamate (for 1 s at a holding potential of −80 mV) induced membrane currents which were inhibited by the joint administration of ambroxol.

T1 sequence (P42261 19-906): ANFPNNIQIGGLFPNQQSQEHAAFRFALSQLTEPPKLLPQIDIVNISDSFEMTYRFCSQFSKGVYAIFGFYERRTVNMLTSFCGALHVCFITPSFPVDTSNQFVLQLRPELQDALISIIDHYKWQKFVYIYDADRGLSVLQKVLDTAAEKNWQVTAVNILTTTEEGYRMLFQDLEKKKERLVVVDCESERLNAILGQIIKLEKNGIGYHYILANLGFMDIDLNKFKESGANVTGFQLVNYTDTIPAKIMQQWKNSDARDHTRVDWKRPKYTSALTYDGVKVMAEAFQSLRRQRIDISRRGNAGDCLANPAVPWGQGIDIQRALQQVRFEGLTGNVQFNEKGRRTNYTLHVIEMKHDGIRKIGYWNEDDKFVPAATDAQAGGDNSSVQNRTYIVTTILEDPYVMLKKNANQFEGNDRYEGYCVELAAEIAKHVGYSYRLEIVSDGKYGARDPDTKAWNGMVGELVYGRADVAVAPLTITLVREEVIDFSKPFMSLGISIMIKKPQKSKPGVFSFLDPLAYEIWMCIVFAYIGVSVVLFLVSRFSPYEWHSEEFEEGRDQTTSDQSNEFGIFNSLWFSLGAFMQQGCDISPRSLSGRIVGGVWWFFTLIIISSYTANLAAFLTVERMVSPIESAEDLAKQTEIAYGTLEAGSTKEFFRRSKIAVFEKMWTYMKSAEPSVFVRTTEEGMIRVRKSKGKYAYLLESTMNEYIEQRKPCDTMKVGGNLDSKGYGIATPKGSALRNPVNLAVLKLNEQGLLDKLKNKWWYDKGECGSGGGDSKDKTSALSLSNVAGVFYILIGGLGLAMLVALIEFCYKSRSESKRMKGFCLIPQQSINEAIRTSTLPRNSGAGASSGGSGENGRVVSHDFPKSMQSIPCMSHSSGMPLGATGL
T1 sequence (P42262 22-883 limits assumed): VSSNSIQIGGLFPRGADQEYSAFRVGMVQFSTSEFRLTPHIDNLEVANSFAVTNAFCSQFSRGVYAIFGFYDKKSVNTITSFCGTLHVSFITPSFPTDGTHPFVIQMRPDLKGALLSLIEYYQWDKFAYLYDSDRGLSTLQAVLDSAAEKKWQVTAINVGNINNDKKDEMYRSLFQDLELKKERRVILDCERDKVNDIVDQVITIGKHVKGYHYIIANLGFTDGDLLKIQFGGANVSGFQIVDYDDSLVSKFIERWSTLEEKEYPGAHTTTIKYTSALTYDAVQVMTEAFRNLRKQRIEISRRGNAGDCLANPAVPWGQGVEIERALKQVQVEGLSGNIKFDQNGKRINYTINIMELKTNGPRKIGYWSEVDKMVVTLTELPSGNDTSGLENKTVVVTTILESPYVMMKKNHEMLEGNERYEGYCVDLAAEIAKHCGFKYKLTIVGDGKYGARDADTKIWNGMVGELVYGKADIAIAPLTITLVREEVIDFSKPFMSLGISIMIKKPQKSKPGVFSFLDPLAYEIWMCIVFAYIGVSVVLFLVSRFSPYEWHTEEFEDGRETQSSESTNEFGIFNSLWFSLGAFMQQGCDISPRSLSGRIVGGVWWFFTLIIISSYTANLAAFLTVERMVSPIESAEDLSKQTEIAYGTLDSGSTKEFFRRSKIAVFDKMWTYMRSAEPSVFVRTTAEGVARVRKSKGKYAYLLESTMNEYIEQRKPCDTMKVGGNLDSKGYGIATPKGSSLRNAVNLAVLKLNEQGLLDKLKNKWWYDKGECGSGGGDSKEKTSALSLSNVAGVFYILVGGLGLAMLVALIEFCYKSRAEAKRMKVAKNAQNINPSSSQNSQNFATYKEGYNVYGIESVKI

## Nc1c(Br)cc(Br)cc1CN[C@H]1CC[C@H](O)CC1 [ambroxol, trans-4-(2-amino-3,5-dibromobenzylamino)cyclohexanol]
[1]
  IC50: 35 µM
[2]
  IC50: > 100 µM
[3]
  concentrations that block voltage-dependent calcium channels: 10 to 1000 µM
Human GluR1/2 receptors
  concentrations that inhibit glutamate-induced membrane currents: 30 to 1000 µM
